# Reference: paper PMC12508057, “Discovery of ETI41 and ETI60: novel selective endosomal Toll-like receptor inhibitors for the treatment of autoimmune diseases” (Experimental & Molecular Medicine, 2025)
# Read-outs that look alike come from different tables or passages of the source.
# Experiments:
# Assay type in all cases: cell-based
# TLR9 [1] = target: T1, TLR9 (Mus musculus, UniProt Q9EQU3); assay: TLR9 inhibition, TNF-α secretion (ELISA) in RAW 264.7; details: for TLR9 TI value: therapeutic index, RAW 264.7
# T1 construct: endogenous in cells; host or cells: RAW 264.7
# T1 sequence (Q9EQU3 26-1032): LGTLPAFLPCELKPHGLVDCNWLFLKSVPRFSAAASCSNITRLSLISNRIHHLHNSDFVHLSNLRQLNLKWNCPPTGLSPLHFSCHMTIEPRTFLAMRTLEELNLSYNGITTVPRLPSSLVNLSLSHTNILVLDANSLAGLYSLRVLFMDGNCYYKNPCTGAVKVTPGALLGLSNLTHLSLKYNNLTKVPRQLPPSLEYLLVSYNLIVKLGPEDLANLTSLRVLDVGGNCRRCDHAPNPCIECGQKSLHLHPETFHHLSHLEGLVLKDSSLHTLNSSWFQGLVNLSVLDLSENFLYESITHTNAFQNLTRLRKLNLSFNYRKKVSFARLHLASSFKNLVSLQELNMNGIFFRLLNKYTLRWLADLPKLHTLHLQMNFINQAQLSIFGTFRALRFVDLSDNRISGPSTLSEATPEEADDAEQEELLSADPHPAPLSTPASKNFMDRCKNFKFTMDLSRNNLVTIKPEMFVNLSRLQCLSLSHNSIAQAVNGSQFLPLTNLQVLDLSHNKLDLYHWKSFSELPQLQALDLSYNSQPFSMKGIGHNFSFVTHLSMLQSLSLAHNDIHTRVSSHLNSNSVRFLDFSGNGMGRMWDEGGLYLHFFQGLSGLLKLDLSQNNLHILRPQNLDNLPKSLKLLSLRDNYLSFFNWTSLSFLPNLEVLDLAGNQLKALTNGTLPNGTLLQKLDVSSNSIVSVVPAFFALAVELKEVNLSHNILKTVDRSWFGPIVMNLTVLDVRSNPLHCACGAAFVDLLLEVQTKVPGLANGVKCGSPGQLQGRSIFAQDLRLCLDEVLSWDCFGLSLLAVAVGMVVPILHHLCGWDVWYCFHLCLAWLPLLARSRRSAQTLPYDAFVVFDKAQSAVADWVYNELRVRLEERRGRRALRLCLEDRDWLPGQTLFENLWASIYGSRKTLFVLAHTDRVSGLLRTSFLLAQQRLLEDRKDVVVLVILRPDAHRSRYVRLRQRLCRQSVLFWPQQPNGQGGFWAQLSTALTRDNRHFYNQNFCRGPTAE
# Experimental: (§1) RAW 264.7 and differentiated THP-1 cells were seeded into 96-well plates at 2 × 10^4 cells per well, while Daudi cells were seeded at 5 × 10^4 cells per well. After stabilization for 30 min, cells were stimulated with specific TLR agonists for 4 or 24 h. Supernatants were diluted and transferred to precoated ELISA plates to measure TNF-α secretion using kits from Invitrogen. Optical absorbance was measured using a BioTek Synergy HTX multimode microplate reader, and data were interpolated using BioTek Gen5 software.
# (§2) One-tailed paired Student’s t-tests were performed using Microsoft Excel (Microsoft). Semi-logarithmic conversions and nonregression curve analyses for calculating 50% lethal concentration (LC50) and 50% inhibitory concentration (IC50) values were conducted using GraphPad Prism 7.0 (GraphPad). The therapeutic index was calculated as […]. Animal experimental results are expressed as mean ± standard deviation and analyzed using SPSS v.20 (IBM SPSS Statistics). Homogeneity of variance was assessed using Levene’s test.
# The cells were activated with agonistic ligands: […], TLR3 (poly I:C, 2 μg/ml, 24 h), TLR4 (LPS, 10 or 100 ng/ml, 4 h), TLR5 (FLA-ST, 500 ng/ml, 4 h), TLR7 (ORN06/LyoVec, 2 μg/ml, 24 h; and IMQ, 1 μg/ml, 4 h), TLR8 (TL8-506, 2 μg/ml, 24 h) and TLR9 (ODN2395, 1 μM, 4 h) at various concentrations in RAW 264.7 cells, human Daudi cells and THP-1 cells. Data are from at least three independent experiments (n = 3) and statistical differences between the induced case and other cases were analyzed and verified using a one-tailed Student’s t-test (*P < 0.05, **P < 0.01, ***P < 0.001).
# hTLR9 = target: T2, hTLR9 (Homo sapiens, UniProt Q9NR96); assay: TLR9 inhibition, ODN2395-induced hTNFα in Daudi
# T2 construct: human B lymphoblasts (Daudi cells); endogenous in cells; host or cells: Daudi
# T2 sequence (Q9NR96 26-1032): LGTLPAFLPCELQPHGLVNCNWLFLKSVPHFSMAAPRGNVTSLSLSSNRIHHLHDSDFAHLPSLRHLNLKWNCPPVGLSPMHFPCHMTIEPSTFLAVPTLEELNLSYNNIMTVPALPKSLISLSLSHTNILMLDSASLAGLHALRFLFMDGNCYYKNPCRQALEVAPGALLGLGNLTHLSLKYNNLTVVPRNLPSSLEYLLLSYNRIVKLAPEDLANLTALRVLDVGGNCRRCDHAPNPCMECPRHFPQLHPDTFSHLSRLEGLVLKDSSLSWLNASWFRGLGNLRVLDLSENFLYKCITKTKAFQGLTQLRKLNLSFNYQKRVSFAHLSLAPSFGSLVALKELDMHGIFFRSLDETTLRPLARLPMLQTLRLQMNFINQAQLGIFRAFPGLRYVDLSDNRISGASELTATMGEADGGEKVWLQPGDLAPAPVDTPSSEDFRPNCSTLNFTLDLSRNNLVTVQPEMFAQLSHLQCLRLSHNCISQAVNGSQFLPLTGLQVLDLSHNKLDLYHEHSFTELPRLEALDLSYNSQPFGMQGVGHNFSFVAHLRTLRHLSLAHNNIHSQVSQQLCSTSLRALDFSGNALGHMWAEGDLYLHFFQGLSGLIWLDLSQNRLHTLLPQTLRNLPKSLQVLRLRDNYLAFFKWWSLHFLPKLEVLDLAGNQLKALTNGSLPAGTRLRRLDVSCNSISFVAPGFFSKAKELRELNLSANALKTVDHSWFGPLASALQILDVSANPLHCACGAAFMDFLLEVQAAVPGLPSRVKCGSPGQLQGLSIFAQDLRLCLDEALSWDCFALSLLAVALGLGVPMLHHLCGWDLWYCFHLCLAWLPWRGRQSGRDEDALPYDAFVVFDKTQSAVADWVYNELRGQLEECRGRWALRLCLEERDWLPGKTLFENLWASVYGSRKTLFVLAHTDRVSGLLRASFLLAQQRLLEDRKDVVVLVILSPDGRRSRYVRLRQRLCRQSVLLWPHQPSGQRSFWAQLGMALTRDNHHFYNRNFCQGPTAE
# Experimental: as §1
# as §2, with “test. […]” for “test.”
# TLR9 [2] = target: T1, TLR9; assay: Real-time quantitative PCR in BMDCs stimulated with ODN2395; details: primary BMDCs, 0.2 and 1 μM, ODN2395 1 μM
# Experimental: Bone marrow cells from 8-week-old C57BL/6 mice (Jackson Laboratory) were cultured in RPMI 1640 with 20 ng/ml granulocyte-macrophage colony-stimulating factor (GM-CSF; Thermo Fisher Scientific) for 8 days. Bone marrow-derived dendritic cell (BMDC) purity was confirmed by fluorescence-activated cell sorting (FACS), showing 84% F4/80^− and CD11c^+ cells. […] Total mRNA was extracted using TRIzol reagent (Thermo Fisher Scientific) and reverse transcribed using the ReverTra Ace qPCR RT Kit (Toyobo). mRNA levels were determined using SYBR Green PCR Master Mix (Kapa Biosystems) and a CFX Connect RT-PCR System (Bio-Rad). Primers used were directed against IL-12p40, IFN-β, CD40 and GAPDH.
# All experiments were independently conducted three times.
Compound,"IC50 (TLR9 [1]; RAW 264.7 cell line, read-out: TLR9 IC50 (mTNFα)) [nM]",TLR9 TI value (TLR9 [1]),IC50 (hTLR9) [nM],"Production of IL-12p40, IFN-β and CD40 (mRNA) (TLR9 [2])",IC50 (TLR9 [1]) [nM]
COc1ccc2c3c(N)c4c(nc3n(CCCN(C)C)c2c1)CCCC4 [ETI60],120,422.71,20.9,–,–
Cc1cc2c(N)c3c(nc2n1CCCN(C)C)CCCCCC3 [ETI41],–,419.88,80.1,significantly inhibited,160
